Literature values in patent US20070134339A1, “ZONISAMIDE AND NSAID NANOPARTICULATE FORMULATIONS” (Elan Pharma International, Limited, priority 2005, published 2007).
In brackets after ≈: the same amount, converted by molar mass.

Columns and labels:
[1] = not given; remark: listed apart in the source
[2] = not given; remark: listed apart in the source

SMILES: NS(=O)(=O)Cc1noc2ccccc12 [Zonisamide, 1,2-benzisoxazole-3-methanesulfonamide]
- peak plasma concentrations (200-400 mg oral dose, normal volunteers): 2 to 5 µg/mL
- time at which peak plasma concentrations occur (200-400 mg oral dose, normal volunteers, without food): 2 to 6 h
- effect of food on bioavailability (oral, in the presence of food): no effect
- time to maximum concentration (oral, in the presence of food): 4 to 6 h
- pKa [1]: 10.2
- solubility in 0.1 N HCl ([2]; 0.1 N HCl): 500 µg/mL (≈ 2.36 mM)
- solubility in water ([2]; water): 800 µg/mL (≈ 3.77 mM)
